In patent US10765114B2, “4-amino-6-(pyridyl and 2-substitutedphenyl)-picolinates and 6-amino-2-(pyridyl and 2-substitutedphenyl)-pyrimidine-4-carboxylates and their use as herbicides” (Dow AgroSciences LLC, priority 2013, dated 2020):
Where two headings read alike, the source gives them in different places.

What was measured:
[1] = tested on: Key Grass and Sedge Weeds as well as Grass Crops; assay: Post-Emergent Test II (Table 6); assay type: in vivo; details: post-emergence, 336 h, 14 days after application; for pest or weed control at 70 g/ha: 70 g ai/ha; for pest or weed control at 140 g/ha: 140 g ai/ha
Method in brief: (§1)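 Plants at first or second true-leaf stage, grown 7-21 days in greenhouse, were sprayed post-emergence at 187 L/ha with compounds in acetone/DMSO/water/crop oil/surfactant mixture at the high rate and ½× to 1/16× dilutions. Injury scored visually after 14 days, 0 (none) to 100% (complete kill), versus untreated plants.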

[2] = tested on: Key Broadleaf Weed and Crop Species; assay: Post-Emergent Test II (Table 5); assay type: in vivo; details: post-emergence, 336 h; for pest or weed control at 70 g/ha: application rate 70 (kg ai/ha; footnote: g ai/ha); for pest or weed control at 140 g/ha: application rate 140 (kg ai/ha; footnote: g ai/ha)
Method in brief: as §1

[3] = CYPSS, read-out: Visual Growth Reduction (%) 14 Days After Application CYPSS
[4] = DIGSA: crabgrass (Digitaria sanguinalis), read-out: Visual Growth Reduction (%) 14 Days After Application DIGSA
[5] = ECHSS, read-out: Visual Growth Reduction (%) 14 Days After Application ECHSS
[6] = ORYSS (crop), read-out: Visual Growth Reduction (%) 14 Days After Application ORYSS
[7] = SETFA: giant foxtail (Setaria faberi), read-out: Visual Growth Reduction (%) 14 Days After Application SETFA
[8] = SORVU: grain sorghum (Sorghum vulgare), read-out: Visual Growth Reduction (%) 14 Days After Application SORVU
[9] = TRZSS (crop), read-out: Visual Growth Reduction (%) 14 Days After Application TRZSS
[10] = ZEAMX: maize, corn (Zea mays), read-out: Visual Growth Reduction (%) 14 Days After Application ZEAMX
[11] = Abutilon theophrasti, ABUTH: velvetleaf (Abutilon theophrasti), read-out: Visual Growth Reduction (%) 14 Days After Application ABUTH
[12] = Amaranthus retroflexus, AMARE: redroot pigweed (Amaranthus retroflexus), read-out: Visual Growth Reduction (%) 14 Days After Application AMARE
[13] = Brassica napus, BRSSS: oilseed rape, canola (Brassica napus), read-out: Visual Growth Reduction (%) 14 Days After Application BRSSS
[14] = Chenopodium album, CHEAL: lambsquarters (Chenopodium album), read-out: Visual Growth Reduction (%) 14 Days After Application CHEAL
[15] = Euphorbia heterophylla, EPHHL: wild poinsettia (Euphorbia heterophylla), read-out: Visual Growth Reduction (%) 14 Days After Application EPHHL
[16] = Helianthus annuus, HELAN: sunflower (Helianthus annuus), read-out: Visual Growth Reduction (%) 14 Days After Application HELAN
[17] = Viola tricolor, VIOTR: wild pansy (Viola tricolor), read-out: Visual Growth Reduction (%) 14 Days After Application VIOTR

Structure (SMILES)	pest or weed control at 70 g/ha [1, 3] [%]	pest or weed control at 140 g/ha [1, 3] [%]	pest or weed control at 70 g/ha [1, 4] [%]	pest or weed control at 140 g/ha [1, 4] [%]	pest or weed control at 70 g/ha [1, 5] [%]	pest or weed control at 140 g/ha [1, 5] [%]	pest or weed control at 70 g/ha [1, 6] [%]	pest or weed control at 140 g/ha [1, 6] [%]	pest or weed control at 70 g/ha [1, 7] [%]	pest or weed control at 140 g/ha [1, 7] [%]	pest or weed control at 70 g/ha [1, 8] [%]	pest or weed control at 140 g/ha [1, 8] [%]	pest or weed control at 70 g/ha [1, 9] [%]	pest or weed control at 140 g/ha [1, 9] [%]	pest or weed control at 70 g/ha [1, 10] [%]	pest or weed control at 140 g/ha [1, 10] [%]	pest or weed control at 70 g/ha [2, 11] [%]	pest or weed control at 140 g/ha [2, 11] [%]	pest or weed control at 70 g/ha [2, 13] [%]	pest or weed control at 140 g/ha [2, 13] [%]	other results
COc1ccc(-c2nc(C(=O)O)c(Cl)c(N)c2F)cn1 [Compound 30]	0 to 29	0 to 29	60 to 74	60 to 74	95 to 100	95 to 100	30 to 44	45 to 59	75 to 84	85 to 94	45 to 59	85 to 94	0 to 29	0 to 29	95 to 100	95 to 100	95 to 100	95 to 100	95 to 100	95 to 100	pest or weed control at 70 g/ha [2, 12]: 95 to 100%; pest or weed control at 140 g/ha [2, 12]: 95 to 100%; pest or weed control at 70 g/ha [2, 14]: 95 to 100%; pest or weed control at 140 g/ha [2, 14]: 95 to 100%; pest or weed control at 70 g/ha [2, 15]: 95 to 100%; pest or weed control at 140 g/ha [2, 15]: 95 to 100%; pest or weed control at 70 g/ha [2, 16]: 95 to 100%; pest or weed control at 140 g/ha [2, 16]: 95 to 100%; pest or weed control at 70 g/ha [2, 17]: 0 to 29%; pest or weed control at 140 g/ha [2, 17]: 0 to 29%; melting point: 166 to 167 °C
Cc1c(-c2cc(N)c(Cl)c(C(=O)O)n2)ccc(Cl)c1Cl [Compound 28]	0 to 29	0 to 29	0 to 29	0 to 29	0 to 29	0 to 29	0 to 29	0 to 29	0 to 29	0 to 29	0 to 29	0 to 29	0 to 29	0 to 29	30 to 44	60 to 74	95 to 100	95 to 100	60 to 74	75 to 84	pest or weed control at 70 g/ha [2, 12]: 95 to 100%; pest or weed control at 140 g/ha [2, 12]: 95 to 100%; pest or weed control at 70 g/ha [2, 14]: 95 to 100%; pest or weed control at 140 g/ha [2, 14]: 95 to 100%; pest or weed control at 70 g/ha [2, 15]: 0 to 29%; pest or weed control at 140 g/ha [2, 15]: 0 to 29%; pest or weed control at 70 g/ha [2, 16]: 85 to 94%; pest or weed control at 140 g/ha [2, 16]: 85 to 94%; pest or weed control at 70 g/ha [2, 17]: 0 to 29%; pest or weed control at 140 g/ha [2, 17]: 0 to 29%; melting point: 174 to 175 °C
COC(=O)c1nc(-c2ccc(C(F)(F)F)nc2F)cc(N)c1Cl [Compound 74]	0 to 29	0 to 29	0 to 29	0 to 29	0 to 29	45 to 59	0 to 29	0 to 29	0 to 29	0 to 29	0 to 29	45 to 59	0 to 29	0 to 29	0 to 29	30 to 44	85 to 94	95 to 100	30 to 44	45 to 59	pest or weed control at 70 g/ha [2, 14]: 75 to 84%; pest or weed control at 140 g/ha [2, 14]: 85 to 94%; pest or weed control at 70 g/ha [2, 15]: 0 to 29%; pest or weed control at 140 g/ha [2, 15]: 0 to 29%; pest or weed control at 70 g/ha [2, 16]: 45 to 59%; pest or weed control at 140 g/ha [2, 16]: 60 to 74%; pest or weed control at 70 g/ha [2, 17]: 0 to 29%; pest or weed control at 140 g/ha [2, 17]: 0 to 29%; melting point: 138 to 141 °C
COC(=O)c1nc(-c2ccc(I)nc2)c(F)c(N)c1Cl [Compound 54, methyl 4-amino-5-chloro-3-fluoro-6′-Iodo-[2,3′-bipyridine]-6-carboxylate]	75 to 84	85 to 94	60 to 74	75 to 84	75 to 84	85 to 94	0 to 29	0 to 29	60 to 74	60 to 74	45 to 59	60 to 74	60 to 74	75 to 84	45 to 59	60 to 74	85 to 94	85 to 94	85 to 94	95 to 100	pest or weed control at 70 g/ha [2, 12]: 85 to 94%; pest or weed control at 140 g/ha [2, 12]: 85 to 94%; pest or weed control at 70 g/ha [2, 14]: 95 to 100%; pest or weed control at 140 g/ha [2, 14]: 95 to 100%; pest or weed control at 70 g/ha [2, 15]: 75 to 84%; pest or weed control at 140 g/ha [2, 15]: 85 to 94%; pest or weed control at 70 g/ha [2, 16]: 85 to 94%; pest or weed control at 140 g/ha [2, 16]: 95 to 100%; pest or weed control at 70 g/ha [2, 17]: 75 to 84%; pest or weed control at 140 g/ha [2, 17]: 85 to 94%
